Measurements as given in patent US20210308034A1, “PREBIOTIC COMPOSITIONS AND METHODS FOR MAINTAINING A HEALTHY SKIN MICROBIOTA” (KIMBERLY-CLARK WORLDWIDE, INC., priority 2018, published 2021).

Tests used:
Assay type in all cases: cell-based
[1] = test system: Micrococcus luteus (ATCC 49732); assay: Carbohydrate Screening Test Method (Biolog phenotype microarray), Bacteria Code D; details: Commensal; carbon microarray plate, OD 600 nm, 36 hr, 33° C.; positive = more than 0.05 OD units above zero; blank cell = not utilized
Description: (§1) After creating desired ratios of various commensal skin bacteria in a healthy skin microbiome, 188 different carbohydrate sources were screened as the next step in determining potential prospects for skin microbiota balancing agents. The screening process was set up to determine which carbohydrate sources promoted commensal and/or pathogenic bacteria as well as to obtain individual and combinations of carbohydrate sources that could serve as microbiota balancing agents that can support or maintain the healthy proportions of commensal skin bacteria of Corynebacterium, Staphylococcus, and Micrococcus. The screening was conducted utilizing Biolog phenotype microarray plates (Hayward, Calif.). Table 1 provides a coded list of the commensal and pathogenic skin bacteria that the carbohydrates were screened against.
(§2) Table 2 provides the results of screening various carbohydrate sources against the commensal and pathogenic bacteria codes listed in Table 1. The Bacteria Codes B, D, E, I, and J are commensal bacteria and are shaded in Table 2 for references purposes. The bacteria codes were each placed in a carbon microarray plate and screened through the Carbohydrate Screening Test Method, as described in the Test Methods section herein. If a particular bacteria code utilized a specific carbohydrate source as described in the Carbohydrate Screening Test Method, then the corresponding cell in Table 2 was marked with a Y (short for “Yes”). […] Many of the carbohydrate sources were utilized by both commensal and pathogenic bacteria, and as such, would not provide an advantage for selective growth of the commensal bacteria. However, some of the carbohydrate sources were only used by commensal bacteria and were identified for further testing as described herein.
(§3) The study employed 10 representative skin bacteria; Staphylococcus epidermidis ATCC 14990, Staphylococcus epidermidis M23864:W2, Staphylococcus aureus ATCC 6538, Staphylococcus aureus ATCC 25904 (Newman), Pseudomonas aeruginosa ATCC 9027, Micrococcus luteus ATCC […], Micrococcus luteus SK58, Klebsiella pneumoniae ATCC BAA-2146, Corynebacterium amycolatum SK46, and Corynebacterium minutissimum ATCC 23348. Cultures were started from freezer bead stocks by placing a single bead into 20 mL of tryptic soy broth (TSB) for all organisms except C. amycolatum SK46 and C. minutissimum ATCC 23348, which were placed into brain heart infusion (BHI) broth. Cultures were grown for about 24 hr at 37° C. except M. luteus ATCC 49732 and M. luteus SK58, which were grown at 30° C. A passage of the culture was made using a sterile swab and streaked onto two M9*2 agar plates to prepare the incubated culture for the phenotype microarray pate according to Table 4. Plates were incubated for about 24 hr at 37° C. except for M. luteus ATCC 49732 and M. luteus SK58, which were incubated at 30° C. for 24 hr.
(§4) All cultures were harvested and washed before inoculation into the carbon microarray plate (BiOLOG, Hayward Calif.), with Biolog Plates PM1 and PM2 each having a source definition of Carbon. The bacteria on the M9*2 agar was suspended via agitation with an inoculating loop in 1 mL of M9*1 media for collection in a 1.7 mL micro centrifuge tube, as noted in Table 4. The bacteria was suspended again in M9*1 media, agitated, and collected into the same 1.7 mL microcentrifuge tube used in the previous step. The tube was centrifuged for 5 minutes at 4,000×G, supernatant decanted, the pellet was resuspended in 1 mL of M9*1 media, and vortex. This washing process was repeated for a total of 4 times.
(§5) A tenfold dilution in M9*1 media was performed using 1 mL of the washed bacterial culture. Of the tenfold dilution 200 μL was placed in an untreated 96-well plate (Falcon, Pasadena Tx.) for an initial optical density (OD) reading at a wavelength of 600 nm. The OD was used to correlate to colony forming units (CFU) per milliliter by using linear regression lines for each organism. […]

[2] = test system: Pseudomonas aeruginosa (ATCC 9027); details: Pathogenic; carbon microarray plate, OD 600 nm, 36 hr, 33° C.; positive = more than 0.05 OD units above zero; blank cell = not utilized
Summary of the method: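 Carbon-source utilisation screen on Biolog PM1/PM2 plates: strain grown in TSB then on M9*2 agar, each ~24 h at 37 °C, washed four times in M9*1 and diluted tenfold. OD600 correlated to CFU/mL; each carbohydrate scored Yes when utilised.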

[3] = test system: Klebsiella pneumoniae (ATCC BAA-2146); details: Pathogenic; carbon microarray plate, OD 600 nm, 36 hr, 33° C.; positive = more than 0.05 OD units above zero; blank cell = not utilized
[4] = test system: Micrococcus luteus (SK58); assay: Carbohydrate Screening Test Method (Biolog phenotype microarray), Bacteria Code E; details: Commensal; carbon microarray plate, OD 600 nm, 36 hr, 33° C.; positive = more than 0.05 OD units above zero; blank cell = not utilized
Summary of the method: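 Each commensal strain grown in Biolog carbon phenotype microarray plates with single carbohydrate sources. Growth curves fitted with GrowthRates 2.1 to give growth rate and maximum yield. Max yields used to calculate predicted co-culture ratios between Corynebacterium, Staphylococcus and Micrococcus, compared with desired ratios of 1.3, 1.4 and 1.1.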

[5] = test system: Corynebacterium jeikum (ATCC 33033); assay: Carbohydrate Screening Test Method (Biolog phenotype microarray), Bacteria Code B; details: Commensal; carbon microarray plate, OD 600 nm, 36 hr, 33° C.; positive = more than 0.05 OD units above zero; blank cell = not utilized
Summary of the method: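 Strain from M9*2 agar was suspended in M9*1 medium, washed and inoculated into Biolog PM1/PM2 carbon plates. Carbohydrate use was scored yes/no, and growth rate and maximum yield were derived with GrowthRates 2.1, with max yields used for commensal ratios.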

[6] = test system: Staphylococcus epidermidis (ATCC 14990); assay: Carbohydrate Screening Test Method (Biolog phenotype microarray), Bacteria Code I; details: Commensal; carbon microarray plate, OD 600 nm, 36 hr, 33° C.; positive = more than 0.05 OD units above zero; blank cell = not utilized
Description: as §1, §2, §3, §4, §5

[7] = test system: Staphylococcus epidermidis (M23864:W2); assay: Carbohydrate Screening Test Method (Biolog phenotype microarray), Bacteria Code J; details: Commensal; carbon microarray plate, OD 600 nm, 36 hr, 33° C.; positive = more than 0.05 OD units above zero; blank cell = not utilized
Description: as §1
The Bacteria Codes B, D, E, I, and J are commensal bacteria and are shaded in Table 2 for references purposes. The bacteria codes were each placed in a carbon microarray plate and screened through the Carbohydrate Screening Test Method, as described in the Test Methods section herein. If a particular bacteria code utilized a specific carbohydrate source as described in the Carbohydrate Screening Test Method, then the corresponding cell in Table 2 was marked with a Y (short for “Yes”).
To do so, the respective microarray data for the 79 carbohydrate sources was run through the GrowthRates 2.1 program to obtain growth parameters, such as growth rates and maximum yield data as described by the Belingham Research Institute, Hall, B. G., H. Acar and M. Barlow. 2014 Growth Rates Made Easy. Mol. Biol. Evol. 31:232-238 doi:10.1093/molbev/mst197. The max yield parameters generated were utilized to calculate ratios of tested commensal bacteria. The ratios calculated were compared back to the desired ratios identified above (Corynebacterium to Staphylococcus of 1.3, Corynebacterium to Micrococcus of 1.4, and Staphylococcus to Micrococcus of 1.1).
As an example of this methodology used to calculate the commensal bacteria ratios and the difference between the calculated ratios and the desired ratios, an example code from Table 3 will be described. […] The max yields were then used to calculate ratios the bacteria would reach in a co-culture.

[8] = test system: Corynebacterium minutissimum (ATCC 23348); assay: Carbohydrate Screening Test Method (Biolog phenotype microarray), Bacteria Code A; details: Pathogenic; carbon microarray plate, OD 600 nm, 36 hr, 33° C.; positive = more than 0.05 OD units above zero; blank cell = not utilized
Description: as §1, §2, §3, §4, §5

Chondroitin Sulfate C
Carbohydrate Screening Results, Bacteria Code D [1]: Y

O=C(CO)[C@@H](O)[C@H](O)[C@@H](O)CO [L-Sorbose]
Carbohydrate Screening Results, Bacteria Code D [1]: Y
Carbohydrate Screening Results, Bacteria Code F [2]: Y
Carbohydrate Screening Results, Bacteria Code C [3]: Y

O=C[C@H](O)[C@@H](O)[C@@H](O)[C@H](O)C(=O)O [D-Galacturonic Acid]
Carbohydrate Screening Results, Bacteria Code D [1]: Y
Carbohydrate Screening Results, Bacteria Code E [4]: Y
Carbohydrate Screening Results, Bacteria Code B [5]: Y

N=C(N)NCCC[C@H](N)C(=O)O [L-Arginine]
Carbohydrate Screening Results, Bacteria Code D [1]: Y
Carbohydrate Screening Results, Bacteria Code F [2]: Y

OC[C@H]1O[C@@H]2O[C@H]3[C@H](O)[C@@H](O)[C@@H](O[C@H]4[C@H](O)[C@@H](O)[C@@H](O[C@H]5[C@H](O)[C@@H](O)[C@@H](O[C@H]6[C@H](O)[C@@H](O)[C@@H](O[C@H]7[C@H](O)[C@@H](O)[C@@H](O[C@H]8[C@H](O)[C@@H](O)[C@@H](O[C@H]1[C@H](O)[C@H]2O)O[C@@H]8CO)O[C@@H]7CO)O[C@@H]6CO)O[C@@H]5CO)O[C@@H]4CO)O[C@@H]3CO [β-Cyclodextrin]
Carbohydrate Screening Results, Bacteria Code D [1]: Y
Carbohydrate Screening Results, Bacteria Code I [6]: Y
Carbohydrate Screening Results, Bacteria Code J [7]: Y

OC[C@H]1O[C@@](CO)(O[C@H]2O[C@H](CO)[C@@H](O)[C@H](O)[C@H]2O)[C@@H](O[C@H]2O[C@H](CO)[C@@H](O)[C@H](O)[C@H]2O)[C@@H]1O [D-Melezitose]
Carbohydrate Screening Results, Bacteria Code D [1]: Y
Carbohydrate Screening Results, Bacteria Code I [6]: Y

CC(=O)N[C@@H](CCC(=O)O)C(=O)O [N-Acetyl-L-Glutamic Acid]
Carbohydrate Screening Results, Bacteria Code D [1]: Y
Carbohydrate Screening Results, Bacteria Code F [2]: Y

CC(C)C[C@H](N)C(=O)O [L-Leucine]
Carbohydrate Screening Results, Bacteria Code D [1]: Y

O=C(O)CC(=O)O [Malonic Acid]
Carbohydrate Screening Results, Bacteria Code D [1]: Y
Carbohydrate Screening Results, Bacteria Code F [2]: Y
Carbohydrate Screening Results, Bacteria Code C [3]: Y

Cc1cn([C@H]2C[C@H](O)[C@@H](CO)O2)c(=O)[nH]c1=O [Thymidine]
Carbohydrate Screening Results, Bacteria Code E [4]: Y
Carbohydrate Screening Results, Bacteria Code B [5]: Y
Carbohydrate Screening Results, Bacteria Code A [8]: Y

NC(=O)CCC(=O)O [Succinamic Acid]
Carbohydrate Screening Results, Bacteria Code D [1]: Y
Carbohydrate Screening Results, Bacteria Code I [6]: Y

O=C[C@@H](O)[C@H](O)[C@H](O)CO [D-Arabinose]
Carbohydrate Screening Results, Bacteria Code D [1]: Y

C/C(=C/C(=O)O)C(=O)O [Citraconic Acid]
Carbohydrate Screening Results, Bacteria Code D [1]: Y
Carbohydrate Screening Results, Bacteria Code I [6]: Y
Carbohydrate Screening Results, Bacteria Code J [7]: Y

O=C1O[C@H](CO)[C@@H](O)[C@H]1O [D-Ribono-1,4-Lactone]
Carbohydrate Screening Results, Bacteria Code D [1]: Y

O=C(O)C(=O)C(C(=O)O)C(O)C(=O)O (stereo not drawn) [Oxalomalic Acid]
Carbohydrate Screening Results, Bacteria Code D [1]: Y
Carbohydrate Screening Results, Bacteria Code J [7]: Y

OC[C@H]1O[C@H](OC[C@H]2OC(O)(CO)[C@@H](O)[C@@H]2O)[C@H](O)[C@@H](O)[C@@H]1O (stereo partly drawn) [Palatinose]
Carbohydrate Screening Results, Bacteria Code I [6]: Y
Carbohydrate Screening Results, Bacteria Code J [7]: Y
Carbohydrate Screening Results, Bacteria Code F [2]: Y
Carbohydrate Screening Results, Bacteria Code C [3]: Y

O=C(O)[C@@H](O)[C@@H](O)[C@H](O)[C@@H](O)C(=O)O [D-Saccharic Acid]
Carbohydrate Screening Results, Bacteria Code A [8]: Y

CC(=O)N[C@H]1C(O)O[C@H](CO)[C@H](O)[C@@H]1O (stereo partly drawn) [N-Acetyl-D-Galactosamine]
Carbohydrate Screening Results, Bacteria Code D [1]: Y

CC(=O)C(=O)O [Pyruvic Acid]
Carbohydrate Screening Results, Bacteria Code D [1]: Y
Carbohydrate Screening Results, Bacteria Code I [6]: Y
Carbohydrate Screening Results, Bacteria Code J [7]: Y
Carbohydrate Screening Results, Bacteria Code F [2]: Y
Carbohydrate Screening Results, Bacteria Code B [5]: Y

CSCC[C@H](N)C(=O)O [L-Methionine]
Carbohydrate Screening Results, Bacteria Code A [8]: Y

O=C(O)CCC(=O)O [Succinic Acid]
Carbohydrate Screening Results, Bacteria Code A [8]: Y

NCCO [2-Aminoethanol]
Carbohydrate Screening Results, Bacteria Code D [1]: Y
Carbohydrate Screening Results, Bacteria Code E [4]: Y
Carbohydrate Screening Results, Bacteria Code B [5]: Y

COC1OC(CO)C(O)C(O)C1O [α-Methyl-D-Mannoside]
Carbohydrate Screening Results, Bacteria Code D [1]: Y

O=c1ccn([C@@H]2O[C@H](CO)[C@@H](O)[C@H]2O)c(=O)[nH]1 [Uridine]
Carbohydrate Screening Results, Bacteria Code D [1]: Y
Carbohydrate Screening Results, Bacteria Code B [5]: Y
Carbohydrate Screening Results, Bacteria Code C [3]: Y

OC[C@H]1O[C@H](OC[C@H]2O[C@H](OC[C@H]3O[C@H](O[C@]4(CO)O[C@H](CO)[C@@H](O)[C@@H]4O)[C@H](O)[C@@H](O)[C@@H]3O)[C@H](O)[C@@H](O)[C@H]2O)[C@H](O)[C@@H](O)[C@H]1O [Stachyose]
Carbohydrate Screening Results, Bacteria Code D [1]: Y
Carbohydrate Screening Results, Bacteria Code F [2]: Y
Carbohydrate Screening Results, Bacteria Code C [3]: Y

OCc1ccccc1O[C@@H]1O[C@H](CO)[C@@H](O)[C@H](O)[C@H]1O [Salicin]
Carbohydrate Screening Results, Bacteria Code D [1]: Y
Carbohydrate Screening Results, Bacteria Code F [2]: Y
Carbohydrate Screening Results, Bacteria Code C [3]: Y

O=C(O)c1ccc(O)cc1 [4-Hydroxy Benzoic Acid]
Carbohydrate Screening Results, Bacteria Code D [1]: Y

N#C[C@H](O[C@@H]1O[C@H](CO[C@@H]2O[C@H](CO)[C@@H](O)[C@H](O)[C@H]2O)[C@@H](O)[C@H](O)[C@H]1O)c1ccccc1 [Amygdalin]
Carbohydrate Screening Results, Bacteria Code D [1]: Y
Carbohydrate Screening Results, Bacteria Code J [7]: Y

Gelatin
Carbohydrate Screening Results, Bacteria Code D [1]: Y
Carbohydrate Screening Results, Bacteria Code J [7]: Y

C[C@H](N)C(N)=O [L-Alaninamide]
Carbohydrate Screening Results, Bacteria Code D [1]: Y
Carbohydrate Screening Results, Bacteria Code J [7]: Y

CC(N)=O [Acetamide]
Carbohydrate Screening Results, Bacteria Code A [8]: Y
